Reference: US20220193072A1, “METHODS OF TREATING BREAST CANCER WITH TETRAHYDRONAPHTHALENE DERIVATIVES AS ESTROGEN RECEPTOR DEGRADER” (Arvinas Operations, Inc., priority 2020, published 2022)

How the values were obtained:
ER-target genes = test: Expression of ER-target genes (GREB1, PR); format: cell-based; details: MCF7 and T47D
[1] = tested on: cell lines expressing ESR1 variants Y537S and D538G; test: Growth of cell lines expressing ESR1 variants; format: cell-based
ERα (ESR1 Y537S) = target: T1, ERα (ESR1 Y537S) (Homo sapiens, UniProt P03372, Y537S); test: Tumor ERα levels in ESR1 (Y537S) PDX model; format: in vivo; details: for reduction of tumor ERα levels: ESR1 (Y537S) PDX, 28 days
T1 construct: a hormone-independent patient-derived xenograft model; from tissue; host or cells: ESR1 (Y537S) patient-derived xenograft tumour grown in mice
T1 sequence (P03372 1-595 Y537S): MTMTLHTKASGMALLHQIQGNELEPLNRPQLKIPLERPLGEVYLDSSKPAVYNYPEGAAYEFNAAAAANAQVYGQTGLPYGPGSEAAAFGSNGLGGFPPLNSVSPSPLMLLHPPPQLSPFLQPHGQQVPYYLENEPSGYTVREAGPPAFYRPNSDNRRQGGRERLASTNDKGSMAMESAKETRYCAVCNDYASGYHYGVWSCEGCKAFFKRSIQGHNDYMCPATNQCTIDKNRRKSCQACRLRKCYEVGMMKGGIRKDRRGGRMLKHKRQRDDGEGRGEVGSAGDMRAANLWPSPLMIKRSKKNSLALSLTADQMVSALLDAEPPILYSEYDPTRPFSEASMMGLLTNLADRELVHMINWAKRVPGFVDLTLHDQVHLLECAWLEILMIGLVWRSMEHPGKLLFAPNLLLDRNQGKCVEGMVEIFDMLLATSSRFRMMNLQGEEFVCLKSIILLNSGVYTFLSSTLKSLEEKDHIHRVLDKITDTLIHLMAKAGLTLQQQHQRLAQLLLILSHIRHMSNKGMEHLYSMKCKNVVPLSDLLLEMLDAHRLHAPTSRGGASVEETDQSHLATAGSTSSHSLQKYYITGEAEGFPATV

MCF7 cells = test: Luminescence-based MCF7 cell proliferation assay, dose-response matrix; details: 5 days (120 hours)
Protocol: MCF7 cells were seeded at a density of 2×10^4 cells in 200 μL of media per well in 2 technical replicate, 96-well black, clear-bottom plates and incubated overnight at 37° C. in a 5% CO2 incubator. […] DMSO was used as the vehicle control. The plates were then incubated for 5 days at 37° C. in a 5% CO2 incubator.
The plates were equilibrated to room temperature for approximately 30 minutes. 50 μL of Cell-Titer Glo (Promega) was added to all wells of the plates, covered with aluminum foil and shaken gently by hand for less than 1 minute. The plates were then incubated for 10 minutes at room temperature. Luminescence was recorded using Envision Multi Label Reader. To assess cell viability, luminescence values for drug-treated wells were normalized to average luminescence of vehicle (DMSO) wells to obtain percent viability relative to control cells. The data were analyzed with the Combenefit software.

T47D ESR1 D538G cells = test: Live-cell imaging growth studies and EC50 for growth inhibition, T47D ESR1 D538G; format: cell-based; details: Homo sapiens; T47D ESR1 D537G (so in the source); read-out: Approximate Half-maximal Effective Concentration (EC50) for growth inhibition
Protocol: MCF7, T47D, T47D ESR1 Y537S or T47D ESR1 D538G cells were seeded at 2×10^5 density per well in 6-well tissue culture-treated plates in DMEM/F12/10% FBS (2 mL total volume). […] The plate was then placed in the Incucyte® S3 Live-Cell Analysis System and images were acquired every 4 hours for a total of 5 days (120 hours). Data were analyzed using the Incucyte® Software v2020C which quantified cell surface area coverage as confluence values. Relative growth was calculated for all timepoints for all growth conditions relative to the confluence value observed for the control at 120 hours. Graphing and statistical analyses were performed using Graphpad Prism (GraphPad Software).

rat uterine ER = target: T2, rat uterine ER (Rattus norvegicus, UniProt P06211); test: Immature rat uterotrophic model; format: in vivo
T2 construct: from tissue; host or cells: uterus of immature rats
T2 sequence (P06211 1-600): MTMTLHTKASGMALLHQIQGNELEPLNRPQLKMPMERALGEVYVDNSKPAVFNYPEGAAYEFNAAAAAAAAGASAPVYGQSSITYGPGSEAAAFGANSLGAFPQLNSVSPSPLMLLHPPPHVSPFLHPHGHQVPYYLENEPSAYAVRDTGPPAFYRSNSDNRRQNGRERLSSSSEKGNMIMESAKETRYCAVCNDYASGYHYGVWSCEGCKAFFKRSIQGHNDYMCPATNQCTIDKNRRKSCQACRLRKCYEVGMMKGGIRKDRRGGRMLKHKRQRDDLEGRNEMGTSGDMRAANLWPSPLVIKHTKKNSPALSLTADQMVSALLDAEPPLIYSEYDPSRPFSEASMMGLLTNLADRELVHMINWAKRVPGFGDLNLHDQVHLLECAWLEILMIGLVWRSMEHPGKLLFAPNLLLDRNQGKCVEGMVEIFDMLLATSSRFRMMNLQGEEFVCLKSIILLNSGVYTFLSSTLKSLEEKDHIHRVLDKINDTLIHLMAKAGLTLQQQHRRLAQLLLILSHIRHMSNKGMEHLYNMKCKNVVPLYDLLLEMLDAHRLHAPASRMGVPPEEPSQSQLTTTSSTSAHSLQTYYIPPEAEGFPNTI

SMILES: O=C1CC[C@H](N2Cc3cc(N4CCN(CC5CCN(c6ccc([C@@H]7c8ccc(O)cc8CC[C@@H]7c7ccccc7)cc6)CC5)CC4)ccc3C2=O)C(=O)N1 [Compound (I-c), (3S)-3-[5-[4-[[1-[4-[(1R,2S)-6-hydroxy-2-phenyl-tetralin-1-yl]phenyl]-4-piperidyl]methyl]piperazin-1-yl]-1-oxo-isoindolin-2-yl]piperidine-2,6-dione]
- expression of classically-regulated ER-target genes (ER-target genes): decreases
- growth of cell lines expressing ESR1 variants Y537S and D538G [1]: inhibits growth
- reduction of tumor ERα levels (ERα (ESR1 Y537S); 10 mg/kg oral once daily): 79%
- reduction of tumor ERα levels (ERα (ESR1 Y537S); 30 mg/kg oral once daily): 88%
- mutant ER protein levels (ERα (ESR1 Y537S); ESR1 Y537S PDX, 10 mg/kg): significantly reduced
- MCF7 cell proliferation, single agent (MCF7 cells): dose-dependent decrease
- EC50 (T47D ESR1 D538G cells): 10 nM
- degradation of rat uterine ER (rat uterine ER): degrades
- agonist activity (uterine weight) (rat uterine ER; FIG. 17: 30 mg/kg once a day oral): no agonist activity
